In US6555091B1, “Polypeptide capable of reacting with antibodies of patients suffering from multiple sclerosis and uses” (Bio Merieux, priority 1997, dated 2003):
No end group written: not given here.

What was measured:
Format in all cases: binding, human
[1] = system: IgG of pool of positive sera (MS remission sera); assay: ELISA of pentadecapeptide phage clones, pool of positive sera versus pool of negative sera; details: phage clones carrying the sequence; 1/200 serum dilution; pool of positive sera compared with pool of negative sera
Experimental: In a first instance, 100 μl of anti-M13 phage antibodies diluted 1/500 in 0.1M NaHCO3, pH 8.6 (marketed by Prinn, Inc. Boulder, Colo. 80303) are bound overnight in the wells of Nunc maxisorb (trade name) microtiter plates. After three washes with TBS/0.05% Tween, the plates are passivated for 1 hour at 37° C. with 250 μl of TBS containing 10% goat serum and again washed three times with the same buffer. 100 μl of various purified phage clones are then incubated for 2 hours at 37° C. in the wells. […] After four washes in TBS/0.05% Tween, 100 μl of peroxidase-labeled anti-human IgG conjugate diluted 1/10,000 (marketed by Jackson Immuno Research Laboratories Inc.) are added before an incubation for one hour at 37° C. […] The staining reaction is interrupted by the addition of 50 μl of 1.8N sulfuric acid. The optical density is measured on a BioMérieux plate reader at 492 nm. The IgM response is determined by addition of 100 μl of biotinylated anti-IgM conjugate diluted 1/4000 (Biomérieux monoclonal antibody) followed by the addition, after the washes, of the streptavidin-peroxidase conjugate diluted 1/10,000.
A library of pentadecapeptides carried on 300 copies of the phage protein VIII was constructed on the same principle as the hexapeptide library using the vector f88-4 according to the work by Greewood et al. (J. Biol. Mol. 1991). […]

[2] = system: IgG of CSF from patients suffering from MS; assay: ELISA of polypeptides, IgG response of CSFs diluted 1/10 (Table 5, FIGS. 7A and 7B); set-up: key to IgG recognition by CSF: positive (+) if the OD value at 492 nm for a 1/10 dilution of the CSF is greater than the mean values obtained for the CSFs from the ND patients+3 times the standard deviation; details: for number of positive (+) CSFs: total line, 15 MS patients, CSF 1/10
Description: FIGS. 7A and 7B represents the IgG response of the polypeptides whose peptide sequence consists of, respectively, SEQ ID NO: 13, SEQ ID NO: 12, SEQ ID NO: 14, SEQ ID NO: 16, SEQ ID NO: 19 and SEQ ID NO: 15, with respect to CSFs diluted 1/10; the results assembled in the appended Table 5 are expressed by the difference in the optical density values obtained for the polypeptide tested and the values obtained for the HIV polypeptide used as control; ND corresponds to patients suffering from a neurological disease other than MS, and MS* corresponds to patients suffering from MS.
Table 5, illustrated in FIGS. 7A and 7B, collates the results on the specific recognition of CSF from patients suffering from MS for 6 polypeptides of the invention, SEQ ID NO: 13, SEQ ID NO: 12, SEQ ID NO: 14, SEQ ID NO: 16, SEQ ID NO: 19 and SEQ ID NO: 15.
For each polypeptide tested, identified in Table 5 by its peptide sequence, the CSFs from patients 1-22 suffering from Ms are determined as positive (+) if the OD value at 492 nm for a 1/10 dilution of the CSF is greater than the mean values obtained for the CSFs from the ND patients+3 times the standard deviation.

[3] = system: IgM of cerebrospinal fluids from patients suffering from MS; assay: ELISA of pentadecapeptide phage clones, IgM response of CSFs (FIG. 6); details: CSF 4 and CSF 7 (MS), CSF 12 (other neurological disease), CSFs diluted 1/10
Description: FIG. 6 represents the IgM response of the CSFs with respect to phages expressing the sequences SEQ ID NO: 14 (EPM), SEQ ID NO: 13 (FCP), SEQ ID NO: 16 (SRG), SEQ ID NO: 17 (QSP) , with respect to the wild-type phage (without an expressed sequence) and another nonspecific sequence (RTG); this representation is given by a histogram grouping together the results expressed as optical density values obtained for each CSF reduced by those obtained with PBS buffer controls in place of the phages; the immunoreactivity of the phage clones is tested in ELISA as described in Example 2, with respect to CSFs diluted 1/10; CSF 12 corresponds to a patient suffering from a neurological disease other than MS; CSF 4 and CSF 7 correspond to two patients suffering from MS.
In a first instance, 100 μl of anti-M13 phage antibodies diluted 1/500 in 0.1M NaHCO3, pH 8.6 (marketed by Prinn, Inc. Boulder, Colo. 80303) are bound overnight in the wells of Nunc maxisorb (trade name) microtiter plates. […] The optical density is measured on a BioMérieux plate reader at 492 nm. The IgM response is determined by addition of 100 μl of biotinylated anti-IgM conjugate diluted 1/4000 (Biomérieux monoclonal antibody) followed by the addition, after the washes, of the streptavidin-peroxidase conjugate diluted 1/10,000. […]

SSAKSHCYAFCSGLP (cysteine pairing not given here) [SEQ ID NO: 11, pentadecapeptide carried by phage clones]
0.248: average positive IgG response [1]

SRGSHEWAVLFRFYY (MSRV) [SEQ ID NO: 16]
+: IgG recognition by CSF ([2]; CSF of MS patient 1, 1/10) | IgG recognition by CSF ([2]; CSF of MS patient 2, 1/10) | IgG recognition by CSF ([2]; CSF of MS patient 3, 1/10) | IgG recognition by CSF ([2]; CSF of MS patient 5, 1/10) | IgG recognition by CSF ([2]; CSF of MS patient 6, 1/10) | IgG recognition by CSF ([2]; CSF of MS patient 7, 1/10) | IgG recognition by CSF ([2]; CSF of MS patient 8, 1/10) | IgG recognition by CSF ([2]; CSF of MS patient 10, 1/10) | IgG recognition by CSF ([2]; CSF of MS patient 18, 1/10) | IgG recognition by CSF ([2]; CSF of MS patient 21, 1/10) | IgG recognition by CSF ([2]; CSF of MS patient 22, 1/10)
11+: number of positive (+) CSFs [2]

EPMTPHQWITLYRSY (MSRV) [SEQ ID NO: 14]
8+: number of positive (+) CSFs [2]
recognized only by CSF 7: recognition of the phage clone by CSFs [3]
+: IgG recognition by CSF ([2]; CSF of MS patient 1, 1/10) | IgG recognition by CSF ([2]; CSF of MS patient 2, 1/10) | IgG recognition by CSF ([2]; CSF of MS patient 3, 1/10) | IgG recognition by CSF ([2]; CSF of MS patient 5, 1/10) | IgG recognition by CSF ([2]; CSF of MS patient 7, 1/10) | IgG recognition by CSF ([2]; CSF of MS patient 10, 1/10) | IgG recognition by CSF ([2]; CSF of MS patient 18, 1/10) | IgG recognition by CSF ([2]; CSF of MS patient 21, 1/10)

MPVSRLCIELDWCPP (MSRV) [SEQ ID NO: 12]
+: IgG recognition by CSF ([2]; CSF of MS patient 1, 1/10) | IgG recognition by CSF ([2]; CSF of MS patient 2, 1/10) | IgG recognition by CSF ([2]; CSF of MS patient 5, 1/10) | IgG recognition by CSF ([2]; CSF of MS patient 6, 1/10) | IgG recognition by CSF ([2]; CSF of MS patient 7, 1/10) | IgG recognition by CSF ([2]; CSF of MS patient 8, 1/10) | IgG recognition by CSF ([2]; CSF of MS patient 10, 1/10) | IgG recognition by CSF ([2]; CSF of MS patient 16, 1/10) | IgG recognition by CSF ([2]; CSF of MS patient 18, 1/10) | IgG recognition by CSF ([2]; CSF of MS patient 21, 1/10)
10+: number of positive (+) CSFs [2]

RGTQEWTELWVSFRA (MSRV) [SEQ ID NO: 19]
8+: number of positive (+) CSFs [2]
+: IgG recognition by CSF ([2]; CSF of MS patient 5, 1/10) | IgG recognition by CSF ([2]; CSF of MS patient 6, 1/10) | IgG recognition by CSF ([2]; CSF of MS patient 7, 1/10) | IgG recognition by CSF ([2]; CSF of MS patient 8, 1/10) | IgG recognition by CSF ([2]; CSF of MS patient 10, 1/10) | IgG recognition by CSF ([2]; CSF of MS patient 18, 1/10) | IgG recognition by CSF ([2]; CSF of MS patient 21, 1/10) | IgG recognition by CSF ([2]; CSF of MS patient 22, 1/10)

FCPPILPYSAWCPVP (MSRV) [SEQ ID NO: 13]
recognized specifically by CSFs 7 and 4: recognition of the phage clone by CSFs [3]
10+: number of positive (+) CSFs [2]
+: IgG recognition by CSF ([2]; CSF of MS patient 1, 1/10) | IgG recognition by CSF ([2]; CSF of MS patient 2, 1/10) | IgG recognition by CSF ([2]; CSF of MS patient 3, 1/10) | IgG recognition by CSF ([2]; CSF of MS patient 5, 1/10) | IgG recognition by CSF ([2]; CSF of MS patient 7, 1/10) | IgG recognition by CSF ([2]; CSF of MS patient 8, 1/10) | IgG recognition by CSF ([2]; CSF of MS patient 10, 1/10) | IgG recognition by CSF ([2]; CSF of MS patient 18, 1/10) | IgG recognition by CSF ([2]; CSF of MS patient 20, 1/10) | IgG recognition by CSF ([2]; CSF of MS patient 21, 1/10)

DTPYPWGWLLDEGYD (MSRV) [SEQ ID NO: 15]
0+: number of positive (+) CSFs [2]

NACYVDLFLGASVCP (cysteine pairing not given here) [SEQ ID NO: 10, pentadecapeptide carried by phage clones]
0.069: average positive IgG response [1]
